Data as given in patent US4415567A, “7α-Methoxycephalosporin derivatives, and antibacterial drugs containing the same” (Eisai Co., Ltd., priority 1980, dated 1983).
In brackets after ≈: the same amount, converted by molar mass. Structures can show the parent of a compound that is named as a salt.

Legend:
[1] = acute toxicity, LD50 (mouse, oral); settings: in vivo
Description: The acute toxicity values [LD50 (mouse, oral)] for the following compounds of this invention were over 5 g/kg: […]

[2] = test system: Klebsielle pneumoniae EK-6; assay: MIC, standard agar dilution method, Klebsielle pneumoniae EK-6; type: cell-based; settings: Klebsielle pneumoniae EK-6; Mueller Hinton agar, 18 hours, 37° C.; read-out: MIC
Protocol: (§1) Minimal inhibitory concentration (MIC) was determined by the standard agar dilution method of the Japan Society of Chemotherapy.
(§2) Compounds were dissolved in appropriate solvents (sterilized water for sodium salts and acetone-water [1:1] for free acids) and serial two-fold dilutions were made. Sodium salt of Cefazolin was chosen as the control compound.
(§3) One-ml aliquots of each dilution were mixed with 9 ml of Mueller Hinton gar in petri-dishes to make agar plates containing the compound at serially diluted concentrations. After agar hardened, plates were put in an incubator at 37° C. for 1.5-2 hours with the lids slightly open to evaporate acetone off the plates.
(§4) Test organisms were grown for 18 hours at 37° C. in Trypticase Soy broth and diluted in saline to approximately 10^6 colony forming units per ml. A loopful of each cell suspension was applied on the agar plate mentioned above and the plates were incubated for 18 hours at 37° C. before MIC was determined.
(§5) The results are shown in Table 2, wherein the compound of Example 5 was selected and used in a form of free carboxylic acid as set forth in the Example 5, Item (a).

Proteus morganii EP-14 = assay: MIC, standard agar dilution method, Proteus morganii EP-14; type: cell-based; settings: Morganella morganii, EP14, Mueller Hinton agar, 18 hours, 37° C.
Protocol: as §1, §2, §3, §4, §5

Escherichia coli NIHJ = assay: MIC, standard agar dilution method, Escherichia coli NIHJ; type: cell-based; settings: Escherichia coli NIHJ; Mueller Hinton agar, 18 hours, 37° C.; read-out: MIC
Protocol: as §1, §2, §3, §4, §5

[3] = test system: Serratia marcescens ES-75; assay: MIC, standard agar dilution method, Serratia marcescens ES-75; type: cell-based; settings: ES75, Mueller Hinton agar, 18 hours, 37° C.
Protocol: as §1, §2, §3, §4, §5

Proteus bulgaris E-18 = assay: MIC, standard agar dilution method, Proteus bulgaris E-18; type: cell-based; settings: Mueller Hinton agar, 18 hours, 37° C.
Protocol: as §1, §2, §3, §4, §5

[4] = test system: Staphylococcus aureus 209-P; assay: MIC, standard agar dilution method, Staphylococcus aureus 209-P; type: cell-based; settings: Mueller Hinton agar, 18 hours, 37° C.
Protocol: as §1, §2, §3, §4, §5

[5] = test system: Pseudomonas aeruginosa EP-172; assay: MIC, standard agar dilution method, Pseudomonas aeruginosa EP-172; type: cell-based; settings: EP172, Mueller Hinton agar, 18 hours, 37° C.
Protocol: as §1, §2, §3, §4, §5

SMILES | MIC [2] [µg/mL] | MIC (Proteus morganii EP-14) [µg/mL] | MIC (Escherichia coli NIHJ) [µg/mL] | MIC [3] [µg/mL] | MIC (Proteus bulgaris E-18) [µg/mL] | MIC [4] [µg/mL] | MIC [5] [µg/mL] | LD50 [1] [mg/kg]
CO[C@@]1(NC(=O)[C@H](NC(=O)c2coc3cc(O)c(O)cc3c2=O)c2ccc(O)cc2)C(=O)N2C(C(=O)O)=C(CSc3nnc(C)s3)CS[C@@H]21 [7β-[D-2-(6,7-Dihydroxychromone-3-carboxamido)-2-(4-hydroxyphenyl)acetamido]-7α-methoxy-3-[5-methyl-2-(1,3,4-thiadiazolyl)]thiomethyl-3-cephem-4-carboxylic acid] |  |  |  |  |  |  |  | > 5000
CO[C@@]1(NC(=O)[C@H](NC(=O)c2coc3cc(O)c(O)cc3c2=O)c2ccc(O)cc2)C(=O)N2C(C(=O)O)=C(CSc3nnnn3C)CS[C@@H]21 [Example 3, 7β-[D-2-(6,7-Dihydroxychromone-3-carboxamido)-2-(4-hydroxyphenyl)acetamido]-7α-methoxy-3-(1-methyl-5-tetrazolyl)thiomethyl-3-cephem-4-carboxylic acid] | ≤ 0.1 | 3.13 (≈ 4.4 µM) | 0.4 (≈ 0.562 µM) | ≤ 0.1 | 0.8 (≈ 1.12 µM) | 3.13 (≈ 4.4 µM) | 0.8 (≈ 1.12 µM) | > 5000
CO[C@@]1(NC(=O)[C@H](NC(=O)c2coc3cc(O)c(O)cc3c2=O)c2ccc(O)cc2)C(=O)N2C(C(=O)O)=C(CSc3nnnn3CC(=O)O)CS[C@@H]21 [Example 16, 7β-[D-2-(6,7-Dihydroxychromone-3-carboxamido)-2-(4-hydroxyphenyl)acetamido]-7α-methoxy-3-1-carboxymethyl-5-tetrazolyl)thiomethyl-3-cephem-4-carboxylic acid disodium salt] |  |  |  |  |  |  |  | > 5000
CCOC(=O)Oc1cc2occ(C(=O)N[C@@H](C(=O)N[C@]3(OC)C(=O)N4C(C(=O)O)=C(CSc5nnnn5CC(=O)OC)CS[C@@H]43)c3ccc(O)cc3)c(=O)c2cc1OC(=O)OCC [Example 20, 7β-[D-2-(6,7-Bis(ethoxycarbonyloxy)chromone-3-carboxamido)-2-(4-hydroxyphenyl)acetamido]-7α-methoxy-3-(1-methoxycarbonylmethyl-5-tetrazolyl)thiomethyl-3-cephem-4-carboxylic acid] | ≤ 0.1 | 6.25 (≈ 6.84 µM) | 3.13 (≈ 3.43 µM) | 0.2 (≈ 0.219 µM) | 0.8 (≈ 0.875 µM) | 6.25 (≈ 6.84 µM) | 0.4 (≈ 0.438 µM) | > 5000
CO[C@@]1(NC(=O)[C@H](NC(=O)c2coc3cc(OC(=O)OCC(Cl)(Cl)Cl)c(OC(=O)OCC(Cl)(Cl)Cl)cc3c2=O)c2ccc(O)cc2)C(=O)N2C(C(=O)O)=C(CSc3nnnn3C)CS[C@@H]21 [Example 23, 7β-[D-2-(6,7-Bis(2,2,2-trichloroethoxycarbonyloxy)chromone-3-carboxamido)-2-(4-hydroxyphenyl)-acetamido]-7α-methoxy-3-(1-methyl-5-tetrazolyl)thiomethyl-3-cephem-4-carboxylic acid] | ≤ 0.1 | 6.25 (≈ 5.88 µM) | 6.25 (≈ 5.88 µM) | 0.2 (≈ 0.188 µM) | 0.8 (≈ 0.753 µM) | 3.13 (≈ 2.95 µM) | 0.8 (≈ 0.753 µM) | > 5000

Second part, led by results:

MIC [2] [µg/mL] | MIC (Proteus morganii EP-14) [µg/mL] | MIC (Escherichia coli NIHJ) [µg/mL] | MIC [3] [µg/mL] | MIC (Proteus bulgaris E-18) [µg/mL] | MIC [4] [µg/mL] | MIC [5] [µg/mL] | SMILES | LD50 [1] [mg/kg]
≤ 0.1 | 6.25 (≈ 6.95 µM) | 3.13 (≈ 3.48 µM) | 0.2 (≈ 0.222 µM) | 0.8 (≈ 0.889 µM) | 3.13 (≈ 3.48 µM) | 0.8 (≈ 0.889 µM) | CCOC(=O)Oc1cc2occ(C(=O)N[C@@H](C(=O)N[C@]3(OC)C(=O)N4C(C(=O)O)=C(CSc5nnnn5CC(=O)O)CS[C@@H]43)c3ccc(O)cc3)c(=O)c2cc1OC(=O)OCC [Example 27, 7β-[D-2-(6,7-Bis(ethoxycarbonyloxy)chromone-3-carboxamido)-2-(4-hydroxyphenyl)acetamido]-7α-methoxy-3-(1-carboxymethyl-5-tetrazolyl)thiomethyl-3-cephem-4-carboxylic acid] | 
≤ 0.1 | 12.5 (≈ 16.2 µM) | 3.13 (≈ 4.06 µM) | 0.4 (≈ 0.518 µM) | 1.56 (≈ 2.02 µM) | 3.13 (≈ 4.06 µM) | 0.8 (≈ 1.04 µM) | CO[C@@]1(NC(=O)[C@H](NC(=O)c2coc3cc(O)c(O)cc3c2=O)c2ccc(O)cc2)C(=O)N2C(C(=O)O)=C(CSc3nnc(CC(=O)O)s3)CS[C@@H]21 [Example 28, 7β-[D-2-(6,7-Dihydroxychromone-3-carboxamido)-2-(4-hydroxyphenyl)acetamido]-7α-methoxy-3-[5-carboxymethyl-2-(1,3,4-thiadiazolyl)]thiomethyl-3-cephem-4-carboxylic acid] | 
≤ 0.1 | 25 (≈ 33.1 µM) | 12.5 (≈ 16.5 µM) | 0.8 (≈ 1.06 µM) | 3.13 (≈ 4.14 µM) | 6.25 (≈ 8.27 µM) | 0.8 (≈ 1.06 µM) | CO[C@@]1(NC(=O)[C@H](NC(=O)c2coc3cc(O)c(O)cc3c2=O)c2ccc(O)cc2)C(=O)N2C(C(=O)O)=C(CSc3nnc(CC(=O)O)o3)CS[C@@H]21 [Example 29, 7β-[D-2-(6,7-Dihydroxychromone-3-carboxamido)-2-(4-hydroxyphenyl)acetamido]-7α-methoxy-3-[5-carboxymethyl-2-(1,3,4-oxadiazolyl)]thiomethyl-3-cephem-4-carboxylic acid] | 
≤ 0.1 | 25 (≈ 32.5 µM) | 12.5 (≈ 16.3 µM) | 0.4 (≈ 0.52 µM) | 3.13 (≈ 4.07 µM) | 3.13 (≈ 4.07 µM) | 0.8 (≈ 1.04 µM) | CO[C@@]1(NC(=O)[C@H](NC(=O)c2coc3cc(O)c(O)cc3c2=O)c2ccc(O)cc2)C(=O)N2C(C(=O)O)=C(CSc3nnnn3CCN(C)C)CS[C@@H]21 [Example 31, 7β-[D-2-(6,7-Dihydroxychromone-3-carboxamido)-2-(4-hydroxyphenyl)acetamido]-7α-methoxy-3-[1-[2-(N,N-dimethylamino)ethyl]-5-tetrazolyl]thiomethyl-3-cephem-4-carboxylic acid] | 
≤ 0.1 | 12.5 (≈ 17.2 µM) | 3.13 (≈ 4.31 µM) | 0.2 (≈ 0.276 µM) | 1.56 (≈ 2.15 µM) | 1.56 (≈ 2.15 µM) | 0.4 (≈ 0.551 µM) | CCn1nnnc1SCC1=C(C(=O)O)N2C(=O)[C@](NC(=O)[C@H](NC(=O)c3coc4cc(O)c(O)cc4c3=O)c3ccc(O)cc3)(OC)[C@H]2SC1 [Example 32, 7β-[D-2-(6,7-Dihydroxychromone-3-carboxamido)-2-(4-hydroxyphenyl)acetamido]-7α-methoxy-3-(1-ethyl-5-tetrazolyl)thiomethyl-3-cephem-4-carboxylic acid] | 
≤ 0.1 | 25 (≈ 35 µM) | 6.25 (≈ 8.76 µM) | 0.2 (≈ 0.28 µM) | 1.56 (≈ 2.19 µM) | 1.56 (≈ 2.19 µM) | 0.4 (≈ 0.56 µM) | CO[C@@]1(NC(=O)[C@H](NC(=O)c2coc3cc(O)c(O)cc3c2=O)c2ccc(O)cc2)C(=O)N2C(C(=O)O)=C(CSc3nncs3)CS[C@@H]21 [Example 33, 7β-[D-2-(6,7-Dihydroxychromone-3-carboxamido)-2-(4-hydroxyphenyl)acetamido]-7α-methoxy-3-[2-(1,3,4-thiadiazolyl)]thiomethyl-3-cephem-4-carboxylic acid] | 
